This note sets out measurements from patent publication US9744186B2 (priority 2012, dated 2017).

Structures are written as SMILES. Where two headings read alike, the source gives them in different places.

Series [1] can be described thus: in vitro. How it is done:
(§1) Plating Cells: The Huh7 cell line was passaged when it was at about 70% confluency. The cells were counted using a hemocytometer, followed by dilution of the cells to 0.5×10^5 cells per mL in DMEM+10% FBS. The cells were plated at 100 μL (5,000 cells) per well in a clear 96-well plate. The cells were allowed to attach for 24 hours at 37° C.
(§2) Treating the cells: The media (DMEM media without phenol red+2% FBS media) was pre-warmed to 37° C. […] This provided a final DMSO concentration of 0.5%. The 100 mM stock of 3,5-dichlorobenzoic acid was diluted in DMEM without phenol red+2% FBS to a concentration of 0.5 mM. The working 0.5 mM diluted test drugs were serially diluted in DMEM without phenol red+2% FBS+0.5% DMSO in order to maintain a constant concentration of DMSO in each condition. The 96-well plate was removed from the 37° C. incubator, and the media on the plate was replaced with media containing diluted test drug.
(§3) MTS Assay: The reagents from CellTiter 96 kit (Promega Corporation, Madison, Wis.) were thawed at room temperature in the dark for 1 h. The 96-well plate was removed from the 37° C. incubator at 48 h after drug treatment. 20 μL of the combined MTS/PMS reagent to each well of the plate, mixed, and the plate returned to 37° C. The absorbance of each well at 490 nm and 650 nm was determined using the Flexstation 3 microplate reader in endpoint mode every hour for 3 h. The solutions in the wells were mixed prior to each reading. The data were fit to the Emax model: y=(Emax*x)/(TC50+x), where Emax is the maximum inhibition and TC50 is the inhibitory dose 50%. Alternatively, the data can be fit to the Emax sigmoidal model: y=(Emax*x^slope)/(TC50^slope+x^slope), where slope is the Hill Slope.

The nature of series [2]: TC50 MTS assay: PK9 cells. Conditions: human, 48 h drug treatment. The series is classed as cell-based. How it is done: (§4) Plating Cells: The Huh7, HEPG2, HEK293, MCF-7, PK9, RPK9, or BxPC3 cells were passaged when they were about 70% confluent. The cells were counted using a hemocytometer, and then diluted cells to 0.5×10^5 cells per mL in DMEM+10% FBS. 100 µL of the cells (5,000 cells) were plated per well in a clear 96-well plate. The cells were allowed to attach for 24 hours at 37° C.
(§5) Treating the cells: Pre-warm the DMEM media without phenol red+2% FBS media to 37° C. […] This will bring the final DMSO concentration to 0.5%. Use these 0.5 mM dilutions to further serially the drugs in DMEM without phenol red+2% FBS+0.5% DMSO. This will keep the concentration of DMSO in each condition identical. Remove the 96-well plate from the 37° C. incubator. Replace the media on the plate with the dilutions of the drugs. Stagger these treatments by 1 h and write the treatment time on each set of plates. Return to 37° C. for 48 h or 96 h as indicated.
(§6) MTS Assay: The reagents from CellTiter 96 kit (Promega Corporation, Madison, Wis.) were thawed at room temperature in the dark for 1 h. The 96-well plate was removed from the 37° C. incubator at 48 h after drug treatment. […] The absorbance of each well at 490 nm and 650 nm was determined using the Flexstation 3 microplate reader in endpoint mode every hour for 3 h. The solutions in the wells were mixed prior to each reading. […]
In general terms: Tetrazolium dyes change colour on reduction, which living cells bring about.

Series [3] can be described thus: TC50 MTS assay: RPK9 cells (deficient in deoxycytidine kinase). Format: cell-based. Conditions: human, 48 h drug treatment, dCK-deficient cells. The method, then: as §4, §5, §6
Series [4] has as its system HCV luciferase replicon. Briefly: HCV luciferase replicon inhibition in the presence of carboxylesterase inhibitors (benzil or BNPP). Format: cell-based. Conditions: Hepatitis C virus, 48 h. The method, then: The cells were counted using a hemocytometer, and then diluted to 1×10^5 cells/mL in DMEM with 10% FBS and […] G415. 100 μL of the cells (10,000 cells) were plated per well in a white-walled 96-well plate according to the template on the following page.
Treating the cells: Media (DMEM with 2% FBS) was pre-warmed to 37° C. Stock solutions (100 mM) of Benzil and BNPP were diluted in DMEM with 2% FBS to 100 μM. […] The cells were returned to 37° C. for 1 h. […] The 1.0 mM dilution of GCB or GTB in DMEM+2% FBS+100 μM Benzil or BNPP was serially diluted in DMEM with 2% FBS, 0.5% DMSO, 100 μM benzil or BNPP. At the end of the 1 h incubation, the 96-well plate with cells plated as above was removed from the 37° C. incubator, and 50 μL media diluted test drug and 100 μM of benzil or BNPP was added to each well. The plates were gently rocked to mix the media. Also included were conditions with inhibitors alone (DMEM+2% FBS+0.5% DMSO+100 μM benzil or BNPP) and media alone (DMEM+2% FBS+0.5% DMSO) in triplicate. The plates were returned to 37° C. for 48 h.

Series [5] relates to HCV luciferase replicon. Briefly: Isobologram analysis of synergism with other anti-viral compounds. Format: cell-based, hepatitis C virus (HCV). The method, then:
Isobologram analysis was carried to assess the potential synergistic interaction of representative disclosed compounds with representative antiviral compounds. The isobolgram analysis was conducted as previously described by Chou and Talalay (see Chou T. C. and Talalay P. “Analysis of combined drug effects: a new look at a very old problem.” Trends Pharmacol Sci 1983; 4:450-4; and Chou T. C. and Talalay P. “Quantitative analysis of dose-effect relationships: the combined effects of multiple drugs or enzyme inhibitors.” Adv Enzyme Regul 1984; 22:27-55). The definitions of synergism are those described by Chou (see Chou, T. C. (2006) Theoretical basis, experimental design, and computerized simulation of synergism and antagonism in drug combination studies. Pharmacol Rev. 58(3):621-81).
Data for the isobologram analysis are shown in FIGS. 12-15, and shown in each figure are the test compound concentrations and corresponding combination index.

Series [6] concerns Huh7 cells. Nature of the series: in vitro. Conditions: control Huh7 cells; 48 h drug exposure; MTS. The method, then:
as §1, §2, §3

The IC50 is the concentration that gives 50% inhibition.

Turning to `COc1cc(C(=O)Nc2ccn([C@@H]3O[C@H](CO)[C@@H](O)C3(F)F)c(=O)n2)cc(OC)c1OC` [GTB, N^4-(3,4,5-Trimethoxybenzoyl)gemcitabine], the CC50 at 48 h in series [1] is 495 ± 97 µM; in series [2] it was 1.69 ± 0.1 µM; in series [3], greater than 500 µM. Further, the IC50 in series [4] (100 μM BNPP, read-out: IC50 (nM) +BNPP) is 81 nM; in series [4] (100 μM benzil, read-out: IC50 (nM) +Benzil), 125 nM; in series [4] (no carboxylesterase inhibitor, read-out: IC50 (nM) −Benzil −BNPP), 49 nM. The “Interaction Type with BMS-790052” value in series [5] (Compound 2 = BMS-790052) is given as “moderate synergism”. For the same compound, the “Interaction Type with PSI-7977” value in series [5] (Compound 2 = PSI-7977) is reported as “moderate antagonism”.
The compound `O=C(Nc1ccn([C@@H]2O[C@H](CO)[C@@H](O)C2(F)F)c(=O)n1)c1cc(Cl)cc(Cl)c1` [GCB, N^4-(3,5-Dichlorobenzoyl)gemcitabine] showed a CC50 at 48 h in series [1] of 110 ± 36 µM. For the same compound, the “TC50” value in series [6] was greater than 100 µM.
